Measured values as given in PubChem BioAssay (NCI).
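48-hour exposure; five concentrations; linearly interpolated endpoints. At the GI50, growth is halved. The concentration for full growth arrest is given as TGI.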

Assays:
Experiment in all cases: growth of human tumour cells (NCI), 48 h
IGROV1 ovarian = system: IGROV1 ovarian
K-562 leukemia = system: K-562 leukemia
MDA-MB-435 = system: MDA-MB-435
SR leukemia = system: SR leukemia
U251 CNS = system: U251 CNS
HT29 colon = system: HT29 colon
SK-MEL-28 melanoma = system: SK-MEL-28 melanoma
SN12C renal = system: SN12C renal
MOLT-4 leukemia = system: MOLT-4 leukemia
HS 578T breast = system: HS 578T breast
HOP-62 NSCLC = system: HOP-62 NSCLC
MDA-MB-231 breast = system: MDA-MB-231 breast
786-0 renal = system: 786-0 renal
MCF7 breast = system: MCF7 breast
NCI-H23 lung = system: NCI-H23 lung
NCI/ADR-RES ovarian = system: NCI/ADR-RES ovarian
NCI-H226 lung = system: NCI-H226 lung
NCI-H460 lung = system: NCI-H460 lung
T-47D breast = system: T-47D breast
BT-549 breast = system: BT-549 breast
A498 renal = system: A498 renal
HL-60(TB) leukemia = system: HL-60(TB) leukemia
OVCAR-4 ovarian = system: OVCAR-4 ovarian
HCT-116 colon = system: HCT-116 colon
SK-OV-3 ovarian = system: SK-OV-3 ovarian
ACHN renal = system: ACHN renal
SF-295 CNS = system: SF-295 CNS
COLO 205 colon = system: COLO 205 colon
OVCAR-3 ovarian = system: OVCAR-3 ovarian
SNB-75 CNS = system: SNB-75 CNS
OVCAR-5 ovarian = system: OVCAR-5 ovarian
SF-268 CNS = system: SF-268 CNS
EKVX NSCLC = system: EKVX NSCLC
PC-3 prostate = system: PC-3 prostate
LOX IMVI melanoma = system: LOX IMVI melanoma
NCI-H522 lung = system: NCI-H522 lung
HOP-92 NSCLC = system: HOP-92 NSCLC
SK-MEL-2 melanoma = system: SK-MEL-2 melanoma
A549 NSCLC = system: A549 NSCLC
KM12 colon = system: KM12 colon
SW-620 colon = system: SW-620 colon
UACC-62 melanoma = system: UACC-62 melanoma
UO-31 renal = system: UO-31 renal
DU-145 prostate = system: DU-145 prostate
TK-10 renal = system: TK-10 renal
SNB-19 CNS = system: SNB-19 CNS
M14 melanoma = system: M14 melanoma
RXF 393 renal = system: RXF 393 renal
SK-MEL-5 melanoma = system: SK-MEL-5 melanoma
HCT-15 colon = system: HCT-15 colon
CAKI-1 renal = system: CAKI-1 renal
UACC-257 melanoma = system: UACC-257 melanoma
RPMI-8226 leukemia = system: RPMI-8226 leukemia
OVCAR-8 ovarian = system: OVCAR-8 ovarian
SF-539 CNS = system: SF-539 CNS
HCC-2998 colon = system: HCC-2998 colon
CCRF-CEM leukemia = system: CCRF-CEM leukemia

With `CC(=O)O[C@H]1C(=O)[C@@]2(C)[C@H]([C@H](OC(=O)c3ccccc3)[C@]3(O)C[C@H](OC(=O)[C@H](OC(=O)OC[C@@H]4COC(C)(C)O4)[C@@H](NC(=O)c4ccccc4)c4ccccc4)C(C)=C1C3(C)C)[C@]1(OC(C)=O)CO[C@@H]1C[C@@H]2O` the GI50 (IGROV1 ovarian) was 62 nM, the TGI (IGROV1 ovarian) was greater than 33300 nM and the GI50 (K-562 leukemia) was 17.6 nM. It also gave a TGI (K-562 leukemia) greater than 33300 nM, a GI50 (MDA-MB-435) of 4.81 nM and a TGI (MDA-MB-435) of 23.7 nM. The GI50 (SR leukemia) was 31.2 nM, the TGI (SR leukemia) was greater than 33300 nM and the GI50 (U251 CNS) was 40.9 nM. The TGI (U251 CNS) was greater than 33300 nM, the GI50 (HT29 colon) was 10.4 nM and the TGI (HT29 colon) was greater than 33300 nM. For the same molecule, the GI50 (SK-MEL-28 melanoma) was greater than 33300 nM, the TGI (SK-MEL-28 melanoma) was greater than 33300 nM and the GI50 (SN12C renal) was 60 nM. For the same molecule, the TGI (SN12C renal) was greater than 33300 nM, the GI50 (MOLT-4 leukemia) was 57.1 nM and the TGI (MOLT-4 leukemia) was greater than 33300 nM. It also gave a GI50 (HS 578T breast) of 25.6 nM, a TGI (HS 578T breast) of 1160 nM and a GI50 (HOP-62 NSCLC) of 119 nM. For the same molecule, the TGI (HOP-62 NSCLC) was greater than 33300 nM, the GI50 (MDA-MB-231 breast) was 143 nM and the TGI (MDA-MB-231 breast) was greater than 7260 nM. It also gave a GI50 (786-0 renal) of 327 nM, a TGI (786-0 renal) greater than 33300 nM and a GI50 (MCF7 breast) of 9.71 nM. It also gave a TGI (MCF7 breast) greater than 33300 nM, a GI50 (NCI-H23 lung) of 72.6 nM and a TGI (NCI-H23 lung) greater than 33300 nM. The GI50 (NCI/ADR-RES ovarian) was greater than 33300 nM, the TGI (NCI/ADR-RES ovarian) was greater than 33300 nM and the GI50 (NCI-H226 lung) was 506 nM. It also gave a TGI (NCI-H226 lung) greater than 33300 nM, a GI50 (NCI-H460 lung) of 7.74 nM and a TGI (NCI-H460 lung) greater than 33300 nM. It also gave a GI50 (T-47D breast) of 63.1 nM, a TGI (T-47D breast) greater than 33300 nM and a GI50 (BT-549 breast) of 120 nM. It also gave a TGI (BT-549 breast) greater than 33300 nM, a GI50 (A498 renal) of 79.9 nM and a TGI (A498 renal) of 758 nM. It also gave a GI50 (HL-60(TB) leukemia) of 24.1 nM, a TGI (HL-60(TB) leukemia) greater than 33300 nM and a GI50 (OVCAR-4 ovarian) greater than 33300 nM. The TGI (OVCAR-4 ovarian) was greater than 33300 nM, the GI50 (HCT-116 colon) was 11.2 nM and the TGI (HCT-116 colon) was greater than 33300 nM. For the same molecule, the GI50 (SK-OV-3 ovarian) was 1020 nM, the TGI (SK-OV-3 ovarian) was greater than 33300 nM and the GI50 (ACHN renal) was 1040 nM. It also gave a TGI (ACHN renal) greater than 33300 nM, a GI50 (SF-295 CNS) of 59.8 nM and a TGI (SF-295 CNS) of 574 nM. The GI50 (COLO 205 colon) was 29.2 nM, the TGI (COLO 205 colon) was greater than 33300 nM and the GI50 (OVCAR-3 ovarian) was 18.3 nM. It also gave a GI50 (SNB-75 CNS) of 4.11 nM, a TGI (SNB-75 CNS) of 137 nM and a GI50 (OVCAR-5 ovarian) of 60.3 nM. It also gave a TGI (OVCAR-5 ovarian) greater than 33300 nM, a GI50 (SF-268 CNS) of 251 nM and a TGI (SF-268 CNS) greater than 33300 nM. The GI50 (EKVX NSCLC) was 190 nM, the TGI (EKVX NSCLC) was greater than 33300 nM and the GI50 (PC-3 prostate) was 45.1 nM. For the same molecule, the TGI (PC-3 prostate) was greater than 33300 nM, the GI50 (LOX IMVI melanoma) was 18.8 nM and the TGI (LOX IMVI melanoma) was greater than 33300 nM. For the same molecule, the GI50 (NCI-H522 lung) was 37.5 nM, the TGI (NCI-H522 lung) was greater than 33300 nM and the GI50 (HOP-92 NSCLC) was 53.2 nM. The TGI (HOP-92 NSCLC) was greater than 33300 nM, the GI50 (SK-MEL-2 melanoma) was 175 nM and the TGI (SK-MEL-2 melanoma) was greater than 33300 nM. For the same molecule, the GI50 (A549 NSCLC) was 48.8 nM, the TGI (A549 NSCLC) was greater than 33300 nM and the GI50 (KM12 colon) was 19.6 nM. For the same molecule, the TGI (KM12 colon) was greater than 33300 nM, the GI50 (SW-620 colon) was 21.3 nM and the TGI (SW-620 colon) was greater than 33300 nM. It also gave a GI50 (UACC-62 melanoma) of 58.7 nM, a TGI (UACC-62 melanoma) greater than 33300 nM and a GI50 (UO-31 renal) of 1790 nM. The TGI (UO-31 renal) was greater than 33300 nM, the GI50 (DU-145 prostate) was 42.4 nM and the TGI (DU-145 prostate) was greater than 33300 nM. The GI50 (TK-10 renal) was 656 nM, the TGI (TK-10 renal) was greater than 33300 nM and the GI50 (SNB-19 CNS) was 92.3 nM. The TGI (SNB-19 CNS) was greater than 33300 nM, the GI50 (M14 melanoma) was 26.8 nM and the TGI (M14 melanoma) was 233 nM. For the same molecule, the GI50 (RXF 393 renal) was 45.4 nM, the TGI (RXF 393 renal) was 279 nM and the GI50 (SK-MEL-5 melanoma) was 147 nM. The TGI (SK-MEL-5 melanoma) was greater than 33300 nM, the GI50 (HCT-15 colon) was 552 nM and the TGI (HCT-15 colon) was greater than 33300 nM. The GI50 (CAKI-1 renal) was 182 nM, the TGI (CAKI-1 renal) was greater than 33300 nM and the GI50 (UACC-257 melanoma) was greater than 7380 nM. It also gave a TGI (UACC-257 melanoma) greater than 33300 nM, a GI50 (RPMI-8226 leukemia) of 9.35 nM and a TGI (RPMI-8226 leukemia) greater than 33300 nM. The GI50 (OVCAR-8 ovarian) was 85.7 nM, the TGI (OVCAR-8 ovarian) was greater than 33300 nM and the GI50 (SF-539 CNS) was 71.5 nM. The TGI (SF-539 CNS) was 2210 nM, the GI50 (HCC-2998 colon) was 96.9 nM and the TGI (HCC-2998 colon) was greater than 33300 nM. For the same molecule, the GI50 (CCRF-CEM leukemia) was 40.2 nM and the TGI (CCRF-CEM leukemia) was greater than 33300 nM.
